# Reference: ChEMBL document CHEMBL3885881, “DrugMatrix”
# Species: Rattus norvegicus
# Assay type: toxicity, organism-based, Sprague-Dawley
# Conditions: in vivo, po, route oral GAVAGE, vehicle 100 % SALINE; for ABSOLUTE EOSINOPHIL / ABSOLUTE LYMPHOCYTE / ABSOLUTE MONOCYTE / ABSOLUTE SEGMENTED NEUTROPHIL / BASOPHIL / EOSINOPHIL / ERYTHROCYTE COUNT / HEMATOCRIT / HEMOGLOBIN / LEUKOCYTE COUNT / LYMPHOCYTE / MEAN CORPUSCULAR HEMOGLOBIN / MEAN CORPUSCULAR HEMOGLOBIN CONCENTRATION / MEAN CORPUSCULAR VOLUME / MONOCYTE / NEUTROPHIL / NUCLEATED RED BLOOD CELLS / PLATELET COUNT: tissue Blood; for ALANINE AMINOTRANSFERASE / ALBUMIN / ALKALINE PHOSPHATASE / ASPARTATE AMINOTRANSFERASE / BLOOD UREA NITROGEN / CARBON DIOXIDE / CHLORIDE / CHOLESTEROL / CREATINE PHOSPHOKINASE / CREATININE / GLUCOSE / LACTATE DEHYDROGENASE / LIPASE / PHOSPHORUS / POTASSIUM / SODIUM / TOTAL BILIRUBIN / TOTAL PROTEIN / URIC ACID: tissue Plasma
# [1] = 10 mg/kg, 24 h, dose level Low, time 1 day
# [2] = 30 mg/kg, 6 h, dose level High, time 0.25 day
# [3] = 30 mg/kg, 24 h, dose level High, time 1 day
# Description: DrugMatrix - Regimen: Single
smiles,measurement,setting,value
O=[As][O-].[Na+] [SODIUM ARSENITE],ABSOLUTE EOSINOPHIL,[1],15.17 CELLS/uL
same,ABSOLUTE LYMPHOCYTE,[1],9656.17 CELLS/uL
same,ABSOLUTE MONOCYTE,[1],190.33 CELLS/uL
same,ABSOLUTE SEGMENTED NEUTROPHIL,[1],505 CELLS/uL
same,BASOPHIL,[1],0%
same,EOSINOPHIL,[1],0.17%
same,ERYTHROCYTE COUNT,[1],4.96 x10E6/uL
same,HEMATOCRIT,[1],32.55%
same,HEMOGLOBIN,[1],12.85 G/DL
same,LEUKOCYTE COUNT,[1],10.37 x10E3/uL
same,LYMPHOCYTE,[1],93%
same,MEAN CORPUSCULAR HEMOGLOBIN,[1],25.92 pg
same,MEAN CORPUSCULAR HEMOGLOBIN CONCENTRATION,[1],39.47 G/DL
same,MEAN CORPUSCULAR VOLUME,[1],65.67 fL
same,MONOCYTE,[1],1.83%
same,NEUTROPHIL,[1],5%
same,NUCLEATED RED BLOOD CELLS,[1],0 /100WBC
same,PLATELET COUNT,[1],1030.17 x10E3/uL
same,ALANINE AMINOTRANSFERASE,[1],32.83 u/L
same,ALBUMIN,[1],4.12 G/DL
same,ALKALINE PHOSPHATASE,[1],249.5 u/L
same,ASPARTATE AMINOTRANSFERASE,[1],61.17 u/L
same,BLOOD UREA NITROGEN,[1],11 mg/dL
same,CARBON DIOXIDE,[1],31.17 mmol/L
same,CHLORIDE,[1],98.33 MEQ/L
same,CHOLESTEROL,[1],81.67 mg/dL
same,CREATINE PHOSPHOKINASE,[1],185.5 u/L
same,CREATININE,[1],0.18 mg/dL
same,GLUCOSE,[1],153.5 mg/dL
same,LACTATE DEHYDROGENASE,[1],58.67 u/L
same,LIPASE,[1],9.83 u/L
same,PHOSPHORUS,[1],10.27 mg/dL
same,POTASSIUM,[1],5.57 MEQ/L
same,SODIUM,[1],143.25 MEQ/L
same,TOTAL BILIRUBIN,[1],0.13 mg/dL
same,TOTAL PROTEIN,[1],5.97 G/DL
same,URIC ACID,[1],0.45 mg/dL
same,ABSOLUTE EOSINOPHIL,[2],50 CELLS/uL
same,ABSOLUTE LYMPHOCYTE,[2],13297 CELLS/uL
same,ABSOLUTE MONOCYTE,[2],256.33 CELLS/uL
same,ABSOLUTE SEGMENTED NEUTROPHIL,[2],2130 CELLS/uL
same,BASOPHIL,[2],0%
same,EOSINOPHIL,[2],0.33%
same,ERYTHROCYTE COUNT,[2],5.91 x10E6/uL
same,HEMATOCRIT,[2],39.97%
same,HEMOGLOBIN,[2],14.47 G/DL
same,LEUKOCYTE COUNT,[2],15.73 x10E3/uL
same,LYMPHOCYTE,[2],84.67%
same,MEAN CORPUSCULAR HEMOGLOBIN,[2],24.55 pg
same,MEAN CORPUSCULAR HEMOGLOBIN CONCENTRATION,[2],36.2 G/DL
same,MEAN CORPUSCULAR VOLUME,[2],67.78 fL
same,MONOCYTE,[2],1.67%
same,NEUTROPHIL,[2],13.33%
same,NUCLEATED RED BLOOD CELLS,[2],0 /100WBC
same,PLATELET COUNT,[2],1100.5 x10E3/uL
same,ALANINE AMINOTRANSFERASE,[2],96.5 u/L
same,ALBUMIN,[2],4.35 G/DL
same,ALKALINE PHOSPHATASE,[2],225.33 u/L
same,ASPARTATE AMINOTRANSFERASE,[2],192.17 u/L
same,BLOOD UREA NITROGEN,[2],19.33 mg/dL
same,CARBON DIOXIDE,[2],17.5 mmol/L
same,CHLORIDE,[2],99.67 MEQ/L
same,CHOLESTEROL,[2],64.33 mg/dL
same,CREATINE PHOSPHOKINASE,[2],1132 u/L
same,CREATININE,[2],0.23 mg/dL
same,GLUCOSE,[2],205 mg/dL
same,LACTATE DEHYDROGENASE,[2],746.17 u/L
same,LIPASE,[2],8.17 u/L
same,PHOSPHORUS,[2],16.53 mg/dL
same,POTASSIUM,[2],6.95 MEQ/L
same,SODIUM,[2],140.37 MEQ/L
same,TOTAL BILIRUBIN,[2],0.2 mg/dL
same,TOTAL PROTEIN,[2],5.83 G/DL
same,URIC ACID,[2],4.12 mg/dL
same,ABSOLUTE EOSINOPHIL,[3],0 CELLS/uL
same,ABSOLUTE LYMPHOCYTE,[3],12176.83 CELLS/uL
same,ABSOLUTE MONOCYTE,[3],320 CELLS/uL
same,ABSOLUTE SEGMENTED NEUTROPHIL,[3],353.17 CELLS/uL
same,BASOPHIL,[3],0%
same,EOSINOPHIL,[3],0%
same,ERYTHROCYTE COUNT,[3],5.64 x10E6/uL
same,HEMATOCRIT,[3],36.4%
same,HEMOGLOBIN,[3],14.38 G/DL
same,LEUKOCYTE COUNT,[3],12.85 x10E3/uL
same,LYMPHOCYTE,[3],94.83%
same,MEAN CORPUSCULAR HEMOGLOBIN,[3],25.55 pg
same,MEAN CORPUSCULAR HEMOGLOBIN CONCENTRATION,[3],39.53 G/DL
same,MEAN CORPUSCULAR VOLUME,[3],64.63 fL
same,MONOCYTE,[3],2.33%
same,NEUTROPHIL,[3],2.83%
same,NUCLEATED RED BLOOD CELLS,[3],0.17 /100WBC
same,PLATELET COUNT,[3],1165.33 x10E3/uL
same,ALANINE AMINOTRANSFERASE,[3],12.67 u/L
same,ALBUMIN,[3],3.88 G/DL
same,ALKALINE PHOSPHATASE,[3],235.5 u/L
same,ASPARTATE AMINOTRANSFERASE,[3],43.83 u/L
same,BLOOD UREA NITROGEN,[3],14.83 mg/dL
same,CARBON DIOXIDE,[3],30.67 mmol/L
same,CHLORIDE,[3],99.5 MEQ/L
same,CHOLESTEROL,[3],62.17 mg/dL
same,CREATINE PHOSPHOKINASE,[3],219.17 u/L
same,CREATININE,[3],0.2 mg/dL
same,GLUCOSE,[3],139.5 mg/dL
same,LACTATE DEHYDROGENASE,[3],82 u/L
same,LIPASE,[3],9 u/L
same,PHOSPHORUS,[3],10.38 mg/dL
same,POTASSIUM,[3],5.78 MEQ/L
same,SODIUM,[3],143.5 MEQ/L
same,TOTAL BILIRUBIN,[3],0.12 mg/dL
same,TOTAL PROTEIN,[3],5.75 G/DL
same,URIC ACID,[3],0.75 mg/dL
